Series [1] in a line: In vivo μPET experiments, pharmacological parameters (2-Compartment Model). As to conditions: Wistar rats.
Series [2] can be described thus: Ex vivo biodistribution (organ SUV) in healthy Wistar rats 60 min after tail vein injection. As to conditions: for Bone-to-organ ratio Blood / Bone-to-organ ratio Heart / Bone-to-organ ratio Intestine / Bone-to-organ ratio Kidneys / Bone-to-organ ratio Liver / Bone-to-organ ratio Lung / Bone-to-organ ratio Muscle / Bone-to-organ ratio Spleen: Wistar rats after 60 min; for SUV Blood / SUV Femur / SUV Heart / SUV Intestine / SUV Kidneys / SUV Liver / SUV Lung / SUV Muscle / SUV Spleen: Wistar rats, ex vivo, 60 min after injection, SUV (standard deviation) from five animals. On the procedure:
Under isoflurane anesthesia, 15-18 MBq of the ^68Ga-marked compound or of the ^177Lu-marked compounds, diluted in isotonic saline solution, was applied into the tail vein of healthy Wistar rats (N=5) having a weight between 140 and 220 g. The rats were killed 60 min after injection, organ samples were removed and weighed, and the accumulation of the marked bisphosphonate in the tissue was determined in SUV (standardized uptake value) according to the formula: SUV=(activity per g of tissue)/(injected activity) x body weight.

For series [3], the system named is bone metastases. The series can be described thus: PET/CT uptake (SUV max) in a patient with prostate carcinoma and bone metastases. To be noted: same patient; DOTA^ZOL PET/CT day n, HBED-PSMA^CC PET/CT day n + 2. The format is in vivo.
Series [4] deals with bone metastases. Description: First therapeutic application / scintigraphy of [177Lu]DOTA^ZOL in a prostate carcinoma patient with disseminated bone metastases. The format is in vivo. On the procedure: FIG. 5: Distribution of [^177Lu]DOTA^ZOL in a patient with disseminated bone metastases: [^177Lu]DOTA^ZOL scintigraphy on a patient with prostate carcinoma 6 hours after injection. In a first therapeutic applications [sic], within two months, the PSA value (which represents an important marker in monitoring the progress of the prostate carcinoma) could be lowered from 478 ng/mL initially to 88 ng/mL after only one treatment with 5.5 GBq [^177Lu]DOTA^ZOL. ^177Lu-DOTAM^ZOL may be used equivalently.

Marks after values point to notes of the source that are not given here.

As to `O=C(O)CN1CCN(CC(=O)O)CCN(CC(=O)NCCC(P(=O)(O)O)P(=O)(O)O)CCN(CC(=O)O)CC1.[68Ga+3]` [[^68Ga]BPAPD], in series [1], the “Elimination half-life t1/2(α)” value is 5 min and the “Elimination half-life t1/2(β)” value is on record as 4 h. Also, in series [2], the “Bone-to-organ ratio Blood” value stood at 3.73, the “Bone-to-organ ratio Heart” value amounted to 10.03, the “Bone-to-organ ratio Intestine” value is on record as 12.35 and the “Bone-to-organ ratio Kidneys” value came out at 5.73. In addition, in series [2], the “Bone-to-organ ratio Liver” value is 8.68, the “Bone-to-organ ratio Lung” value is on record as 7.47, the “Bone-to-organ ratio Muscle” value amounted to 18.88 and the “Bone-to-organ ratio Spleen” value is on record as 13.96. For the same compound, in series [2], the “SUV Blood” value is on record as 0.86 (0.21) SUV, the “SUV Femur” value was 3.21 (0.29) SUV, the “SUV Heart” value was 0.32 (0.09) SUV and the “SUV Intestine” value is reported as 0.26 (0.05) SUV. Also, in series [2], the “SUV Kidneys” value is reported as 0.56 (0.08) SUV, the “SUV Liver” value is 0.37 (0.11) SUV, the “SUV Lung” value is on record as 0.43 (0.08) SUV and the “SUV Muscle” value is reported as 0.17 (0.02) SUV. Also, in series [2], the “SUV Spleen” value is 0.23 (0.08) SUV.

In the case of `O=C(O)CN1CCN(CC(=O)O)CCN(CC(=O)NCCC(O)(P(=O)(O)O)P(=O)(O)O)CCN(CC(=O)O)CC1.[68Ga+3]` [[^68Ga]DOTA^PAM], in series [1], the “Elimination half-life t1/2(α)” value amounted to 4.5 min and the “Elimination half-life t1/2(β)” value is 4.5 h. Also, in series [2], the “Bone-to-organ ratio Blood” value was determined as 7.61, the “Bone-to-organ ratio Heart” value is reported as 19.49, the “Bone-to-organ ratio Intestine” value turned out to be 16.11 and the “Bone-to-organ ratio Kidneys” value came to 9.44. In series [2], the “Bone-to-organ ratio Liver” value was found to be 10.02, the “Bone-to-organ ratio Lung” value turned out to be 8.61, the “Bone-to-organ ratio Muscle” value stood at 47.96 and the “Bone-to-organ ratio Spleen” value is recorded as 14.51. For the same compound, in series [2], the “SUV Blood” value is 0.60 (0.03) SUV, the “SUV Femur” value is 4.53 (0.17) SUV, the “SUV Heart” value is 0.23 (0.02) SUV and the “SUV Intestine” value is 0.28 (0.12) SUV. Further, in series [2], the “SUV Kidneys” value was 0.48 (0.06) SUV, the “SUV Liver” value is given as 0.43 (0.04) SUV, the “SUV Lung” value is recorded as 0.53 (0.16) SUV and the “SUV Muscle” value was 0.09 (0.02) SUV. Moreover, in series [2], the “SUV Spleen” value was 0.31 (0.04) SUV.

Take `O=C(O)CN1CCN(CC(=O)O)CCN(CC(=O)NCCc2cn(CC(O)(P(=O)(O)O)P(=O)(O)O)cn2)CCN(CC(=O)O)CC1.[68Ga+3]` [[^68Ga]DOTA^ZOL]: in series [1], the “Elimination half-life t1/2(α)” value was 5 min and the “Elimination half-life t1/2(β)” value is recorded as 2.3 h. In addition, in series [2], the “Bone-to-organ ratio Blood” value is 11.47, the “Bone-to-organ ratio Heart” value is 37.97, the “Bone-to-organ ratio Intestine” value amounted to 38.67 and the “Bone-to-organ ratio Kidneys” value was determined as 10.22. Also, in series [2], the “Bone-to-organ ratio Liver” value is 19.21, the “Bone-to-organ ratio Lung” value amounted to 12.06, the “Bone-to-organ ratio Muscle” value is recorded as 65.96 and the “Bone-to-organ ratio Spleen” value was determined as 31.71. In addition, in series [2], the “SUV Blood” value is given as 0.47 (0.19)^† SUV, the “SUV Femur” value is listed as 5.40 (0.62)^†‡ SUV, the “SUV Heart” value is 0.14 (0.04)^†‡ SUV and the “SUV Intestine” value was 0.14 (0.08)^ SUV. Besides, in series [2], the “SUV Kidneys” value is given as 0.53 (0.04)^ SUV, the “SUV Liver” value is 0.28 (0.03)^‡ SUV, the “SUV Lung” value is 0.45 (0.11)^ SUV and the “SUV Muscle” value is reported as 0.08 (0.02)^† SUV. Moreover, the “SUV Spleen” value in series [2] is given as 0.17 (0.02)^‡ SUV. In the series on bone metastases [3], the “SUV max, bone lesion 8th right rear rib” value is on record as 7.99 SUV max; the “SUV max, bone lesion C4 vertebral body and hip pedicle” value is recorded as 12.38 SUV max; the “SUV max, bone lesion L2 vertebral body” value is 68.92 SUV max; the “SUV max, bone lesion L3 vertebral body” value is given as 62.96 SUV max. In the series with bone metastases [3], the “SUV max, bone lesion L4 vertebral body” value amounted to 34.51 SUV max; the “SUV max, bone lesion L5 vertebral body” value came out at 21.94 SUV max; the “SUV max, bone lesion Left bones, upper ischium, and pubic bone” value was determined as 62.32 SUV max; the “SUV max, bone lesion Right acetabulum” value came to 25.39 SUV max. Moreover, in the series with bone metastases [3], the “SUV max, bone lesion Right ischium” value worked out at 32.55 SUV max; the “SUV max, bone lesion Sacrum” value is 17.98 SUV max; the “SUV max, bone lesion T9 vertebral body” value is listed as 17.08 SUV max; the “SUV max, bone lesion T11 vertebral body” value amounted to 32.29 SUV max. In the series with bone metastases [3], the “SUV max, soft tissue Bladder” value came to 15.53 SUV max; the “SUV max, soft tissue Left kidney” value is given as 4.12 SUV max; the “SUV max, soft tissue Left parotid gland” value is on record as 1.46 SUV max; the “SUV max, soft tissue Liver” value is on record as 2.85 SUV max. For the same compound, in the series on bone metastases [3], the “SUV max, soft tissue Right kidney” value is recorded as 9.34 SUV max; the “SUV max, soft tissue Right parotid gland” value was 1.22 SUV max; the “SUV max, soft tissue Spleen” value was found to be 4.50 SUV max.

For `O=C(O)CN1CCN(CC(=O)O)CCN(CC(=O)NCCc2cn(CC(O)(P(=O)(O)O)P(=O)(O)O)cn2)CCN(CC(=O)O)CC1.[177Lu+3]` [[^177Lu]DOTA^ZOL], the Selectivity of distribution entry with bone metastases [4] (first clinical studies, FIG. 5 scintigraphy 6 hours after injection) is reported as “high selectivity”. The “PSA value after treatment” value with bone metastases [4] (prostate carcinoma patient, within two months after only one treatment with 5.5 GBq, initially 478 ng/mL) turned out to be 88 ng/mL.
